Laboratory results taken from ChEMBL document CHEMBL1145521, “Lenalidomide inhibits the malignant clone and up-regulates the SPARC gene mapping to the commonly deleted region in 5q- syndrome patients” (2007).
Active and inactive are the calls of the source. No cut-off for these calls is given here.

What was measured:
[1] = Upregulation of ANGPT2 gene expression in healthy human erythroblasts after 7 days relative to control; type: functional
[2] = Upregulation of SEC14L5 gene expression in healthy human erythroblasts after 7 days relative to control; type: functional
[3] = Increase in activin A gene expression in CD34- mononuclear cells from del(5q) myelodysplastic syndrome patient by RT-PCR after 7 days relative to control
[4] = organism: Homo sapiens; test: Inhibition of cell proliferation of human bone marrow mononuclear cells assessed as [3H]thymidine incorporation upto 500 uM after 4 days; type: functional
[5] = Down-regulation of HBA2 gene expression in erythroblasts from myelodysplastic syndrome del(5q) patient after 7 days relative to control; type: functional; conditions: Homo sapiens
[6] = Increase in activin A gene expression in CD34- mononuclear cells from del(5q) myelodysplastic syndrome patient by RT-PCR after 2 days relative to control
[7] = Down-regulation of AMMECR1 gene expression in healthy human erythroblasts after 7 days relative to control; type: functional
[8] = Decrease in erythroid differentiation of CD34+ progenitor cells from myelodysplastic syndrome del(5q) patient assessed as glycophorin A expression after 14 days; type: functional; conditions: Homo sapiens
[9] = Upregulation of VSIG4 gene expression in erythroblasts from myelodysplastic syndrome del(5q) patient after 7 days relative to control; type: functional; conditions: Homo sapiens
[10] = Down-regulation of ALAS2 gene expression in healthy human erythroblasts after 7 days relative to control; type: functional
[11] = Down-regulation of GYPA gene expression in erythroblasts from myelodysplastic syndrome del(5q) patient after 7 days relative to control; type: functional; conditions: Homo sapiens
[12] = Upregulation of PRG3 gene expression in healthy human erythroblasts after 7 days relative to control; type: functional
[13] = Down-regulation of TUBB2 gene expression in erythroblasts from myelodysplastic syndrome del(5q) patient after 7 days relative to control; type: functional; conditions: Homo sapiens
[14] = Down-regulation of HBA2 gene expression in healthy human erythroblasts after 7 days relative to control; type: functional
[15] = Upregulation of PRG3 gene expression in erythroblasts from myelodysplastic syndrome del(5q) patient after 7 days relative to control; type: functional; conditions: Homo sapiens
[16] = Upregulation of MAOA gene expression in healthy human erythroblasts after 7 days relative to control; type: functional
[17] = Down-regulation of SPTA1 gene expression in healthy human erythroblasts after 7 days relative to control; type: functional
[18] = Upregulation of TPBG gene expression in healthy human erythroblasts after 7 days relative to control; type: functional
[19] = Down-regulation of HBG2 gene expression in erythroblasts from myelodysplastic syndrome del(5q) patient after 7 days relative to control; type: functional; conditions: Homo sapiens
[20] = Down-regulation of HBBP1 gene expression in healthy human erythroblasts after 7 days relative to control; type: functional
[21] = Upregulation of CHI3L1 gene expression in healthy human erythroblasts after 7 days relative to control; type: functional
[22] = Down-regulation of LRP11 gene expression in erythroblasts from myelodysplastic syndrome del(5q) patient after 7 days relative to control; type: functional; conditions: Homo sapiens
[23] = Upregulation of ANGPT2 gene expression in erythroblasts from myelodysplastic syndrome del(5q) patient after 7 days relative to control; type: functional; conditions: Homo sapiens
[24] = Upregulation of CYP4F3 gene expression in healthy human erythroblasts after 7 days relative to control; type: functional
[25] = Upregulation of SPARC gene expression in healthy human erythroblasts after 7 days relative to control; type: functional
[26] = Down-regulation of GYPE gene expression in erythroblasts from myelodysplastic syndrome del(5q) patient after 7 days relative to control; type: functional; conditions: Homo sapiens
[27] = Upregulation of DSC2 gene expression in erythroblasts from myelodysplastic syndrome del(5q) patient after 7 days relative to control; type: functional; conditions: Homo sapiens
[28] = Upregulation of TPBG gene expression in erythroblasts from myelodysplastic syndrome del(5q) patient after 7 days relative to control; type: functional; conditions: Homo sapiens
[29] = Upregulation of MAOA gene expression in erythroblasts from myelodysplastic syndrome del(5q) patient after 7 days relative to control; type: functional; conditions: Homo sapiens
[30] = Upregulation of INHBA gene expression in erythroblasts from myelodysplastic syndrome del(5q) patient after 7 days relative to control; type: functional; conditions: Homo sapiens
[31] = Down-regulation of HBA1 gene expression in healthy human erythroblasts after 7 days relative to control; type: functional
[32] = Upregulation of CHI3L1 gene expression in erythroblasts from myelodysplastic syndrome del(5q) patient after 7 days relative to control; type: functional; conditions: Homo sapiens
[33] = Increase in SPARC gene expression in erythroid progenitor cells from non-del(5q) myelodysplastic syndrome patient by RT-PCR after 7 days relative to control; type: functional, Homo sapiens
[34] = Upregulation of RTN1 gene expression in healthy human erythroblasts after 7 days relative to control; type: functional
[35] = organism: Homo sapiens; test: Growth inhibition of CD34+ progenitor cells from non-del(5q) myelodysplastic syndrome patient after 14 days; type: functional
[36] = Down-regulation of GYPE gene expression in healthy human erythroblasts after 7 days relative to control; type: functional
[37] = Upregulation of VSIG4 gene expression in healthy human erythroblasts after 7 days relative to control; type: functional
[38] = Down-regulation of KLF1 gene expression in healthy human erythroblasts after 7 days relative to control; type: functional
[39] = Upregulation of DEFA1 gene expression in erythroblasts from myelodysplastic syndrome del(5q) patient after 7 days relative to control; type: functional; conditions: Homo sapiens
[40] = Upregulation of PPIC gene expression in healthy human erythroblasts after 7 days relative to control; type: functional
[41] = Down-regulation of LRP11 gene expression in healthy human erythroblasts after 7 days relative to control; type: functional
[42] = Upregulation of SPARC gene expression in erythroblasts from myelodysplastic syndrome del(5q) patient after 7 days relative to control; type: functional; conditions: Homo sapiens
[43] = Down-regulation of HBG2 gene expression in healthy human erythroblasts after 7 days relative to control; type: functional
[44] = Upregulation of CXCL1 gene expression in healthy human erythroblasts after 7 days relative to control; type: functional
[45] = Upregulation of CXCL1 gene expression in erythroblasts from myelodysplastic syndrome del(5q) patient after 7 days relative to control; type: functional; conditions: Homo sapiens
[46] = Upregulation of DEFA1 gene expression in healthy human erythroblasts after 7 days relative to control; type: functional
[47] = Down-regulation of GYPA gene expression in healthy human erythroblasts after 7 days relative to control; type: functional
[48] = Upregulation of DSC2 gene expression in healthy human erythroblasts after 7 days relative to control; type: functional
[49] = Growth inhibition of CD34- mononuclear cells from myelodysplastic syndrome del(5q-) patient by FISH after 7 days; type: functional, Homo sapiens
[50] = Increase in SPARC gene expression in CD34- mononuclear cells from del(5q) myelodysplastic syndrome patient by RT-PCR after 2 days relative to control
[51] = Upregulation of CYP4F3 gene expression in erythroblasts from myelodysplastic syndrome del(5q) patient after 7 days relative to control; type: functional; conditions: Homo sapiens
[52] = Down-regulation of CXADR gene expression in erythroblasts from myelodysplastic syndrome del(5q) patient after 7 days relative to control; type: functional; conditions: Homo sapiens
[53] = Down-regulation of CXADR gene expression in healthy human erythroblasts after 7 days relative to control; type: functional
[54] = Down-regulation of ALAS2 gene expression in erythroblasts from myelodysplastic syndrome del(5q) patient after 7 days relative to control; type: functional; conditions: Homo sapiens
[55] = Increase in activin A gene expression in erythroid progenitor cells from non-del(5q) myelodysplastic syndrome patient by RT-PCR after 7 days relative to control; type: functional, Homo sapiens
[56] = Down-regulation of THRB gene expression in healthy human erythroblasts after 7 days relative to control; type: functional
[57] = Down-regulation of SPTA1 gene expression in erythroblasts from myelodysplastic syndrome del(5q) patient after 7 days relative to control; type: functional; conditions: Homo sapiens
[58] = Down-regulation of KLF1 gene expression in erythroblasts from myelodysplastic syndrome del(5q) patient after 7 days relative to control; type: functional; conditions: Homo sapiens
[59] = Down-regulation of THRB gene expression in erythroblasts from myelodysplastic syndrome del(5q) patient after 7 days relative to control; type: functional; conditions: Homo sapiens
[60] = Increase in SPARC gene expression in CD34- mononuclear cells from del(5q) myelodysplastic syndrome patient by RT-PCR after 7 days relative to control
[61] = Down-regulation of HBBP1 gene expression in erythroblasts from myelodysplastic syndrome del(5q) patient after 7 days relative to control; type: functional; conditions: Homo sapiens
[62] = Down-regulation of HBA1 gene expression in erythroblasts from myelodysplastic syndrome del(5q) patient after 7 days relative to control; type: functional; conditions: Homo sapiens
[63] = Decrease in myeloid differentiation of CD34+ progenitor cells from myelodysplastic syndrome del(5q) patient assessed as CD33 expression after 14 days; type: functional; conditions: Homo sapiens
[64] = Down-regulation of AMMECR1 gene expression in erythroblasts from myelodysplastic syndrome del(5q) patient after 7 days relative to control; type: functional; conditions: Homo sapiens
[65] = Upregulation of RTN1 gene expression in erythroblasts from myelodysplastic syndrome del(5q) patient after 7 days relative to control; type: functional; conditions: Homo sapiens
[66] = Decrease in erythroid differentiation of CD34+ progenitor cells from myelodysplastic syndrome del(5q) patient assessed as CD36 expression after 14 days; type: functional; conditions: Homo sapiens
[67] = organism: Homo sapiens; test: Inhibition of cell proliferation of CD34+ progenitor cells from myelodysplastic syndrome del(5q) patient after 14 days; type: functional
[68] = Down-regulation of GYPB gene expression in erythroblasts from myelodysplastic syndrome del(5q) patient after 7 days relative to control; type: functional; conditions: Homo sapiens
[69] = Down-regulation of HBB gene expression in erythroblasts from myelodysplastic syndrome del(5q) patient after 7 days relative to control; type: functional; conditions: Homo sapiens
[70] = Upregulation of PPIC gene expression in erythroblasts from myelodysplastic syndrome del(5q) patient after 7 days relative to control; type: functional; conditions: Homo sapiens
[71] = Down-regulation of HBB gene expression in healthy human erythroblasts after 7 days relative to control; type: functional
[72] = Upregulation of INHBA gene expression in healthy human erythroblasts after 7 days relative to control; type: functional
[73] = Down-regulation of TUBB2 gene expression in healthy human erythroblasts after 7 days relative to control; type: functional
[74] = Upregulation of SEC14L5 gene expression in erythroblasts from myelodysplastic syndrome del(5q) patient after 7 days relative to control; type: functional; conditions: Homo sapiens
[75] = Down-regulation of GYPB gene expression in healthy human erythroblasts after 7 days relative to control; type: functional

Structure (SMILES): Nc1cccc2c1CN(C1CCC(=O)NC1=O)C2=O (stereo not given) [LENALIDOMIDE]
- Fold change [1]: 1.9
- Fold change [2]: 3.6
- Fold change [3]: 2.6
- Activity [4]: inactive
- Fold change [5]: 11
- Fold change [6]: 2.5
- Fold change [7]: -3.2
- Activity [8]: Active
- Fold change [9]: 9.5
- Fold change [10]: 7.6
- Fold change [11]: 3.7
- Fold change [12]: 1.7
- Fold change [13]: 8.2
- Fold change [14]: 9.7
- Fold change [15]: 2.9
- Fold change [16]: 2.1
- Fold change [17]: 4.8
- Fold change [18]: 5.4
- Fold change [19]: -4.4
- Fold change [20]: 2.8
- Fold change [21]: 10.3
- Fold change [22]: 2.4
- Fold change [23]: 3.3
- Fold change [24]: 3.5
- Fold change [25]: 4.8
- Fold change [26]: 3
- Fold change [27]: 3
- Fold change [28]: 4.1
- Fold change [29]: 3.9
- Fold change [30]: 4.9
- Fold change [31]: 11.1
- Fold change [32]: 6.1
- Fold change [33]: 9.3
- Fold change [34]: 5.4
- Activity [35]: Active
- Fold change [36]: 2.2
- Fold change [37]: 9.5
- Fold change [38]: 3.4
- Fold change [39]: 8.9
- Fold change [40]: 10.9
- Fold change [41]: 4.8
- Fold change [42]: 4.1
- Fold change [43]: -1.4
- Fold change [44]: 2.9
- Fold change [45]: 4.1
- Fold change [46]: 16.3
- Fold change [47]: 9.1
- Fold change [48]: 3.6
- growth inhibition (GI) [49]: 65%
- Fold change [50]: 8.1
- Fold change [51]: 3.1
- Fold change [52]: 3.6
- Fold change [53]: 5.9
- Fold change [54]: 3.3
- Fold change [55]: 12.6
- Fold change [56]: 2
- Fold change [57]: 4.5
- Fold change [58]: 3.7
- Fold change [59]: 2.8
- Fold change [60]: 5.8
- Fold change [61]: 4.9
- Fold change [62]: 8.5
- Activity [63]: Active
- Fold change [64]: 2.9
- Fold change [65]: 3.5
- Activity [66]: Active
- Activity [67]: Active
- Fold change [68]: 3.6
- Fold change [69]: 7.7
- Fold change [70]: 5.2
- Fold change [71]: 3.4
- Fold change [72]: 2.5
- Fold change [73]: 13.9
- Fold change [74]: 2.8
- Fold change [75]: 2.9
